Experiment: gradient 5% acetonitrile 3 min, to 50% in 2 min, to 85% in 15 min, held 3 min, 100 µL/min
Details: column: Zorbax Extend-C18 2.1 x 50 mm; eluents: water / acetonitrile, 0.1% formic acid
Outline: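 The system's dead and dwell volumes were 40 μL and 900 μL, with a Zorbax Extend-C18 column (2.1 × 50 mm, 1.8 μm) run at 100 μL/min in water and acetonitrile containing 0.1% formic acid each. Pure standards were analyzed in mixtures of ~100 molecules by HPLC–quadrupole time-of-flight mass spectrometry in positive and negative ionization mode. Retention time was assigned from computationally picked, manually inspected adduct peaks.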

Structure (SMILES)	RP-LC retention time [s]
CCC1CCCCN1C(=O)c1cnc2nc(C)ccc2c1Nc1cc(F)ccc1C (centres undefined)	705
O=C(c1ccc(-c2csc(C3CC3)n2)cc1)N1CCN(c2ncccn2)CC1	912
O=C(c1ccno1)N1CCC(c2nnc(-c3ccco3)s2)CC1	644
Cc1nn2c(CNS(=O)(=O)c3ccc4c(c3)CCC4)c(-c3ccccc3)nc2s1	936
COCCn1nnnc1C1CC2(CCOCC2)C(=O)N1CCc1ccc(OC)c(OC)c1 (centres undefined)	685
CC1CCN(c2nn(CC(=O)NC3CCc4ccccc43)c(=O)c3ccccc23)CC1 (centres undefined)	1140
COc1ccc(-c2noc(CSc3nccn3-c3ccccc3)n2)cc1	869
CCn1ccc(C(=O)N2CCN(C(=O)N3C[C@H]4C[C@H](C3)[C@H]3CCCC(=O)N3C4)CC2)n1	609
CSc1cccc(NC(=O)COc2cc(C(F)(F)F)c3c(C)nn(C)c3n2)c1	756
CC(C)C(=O)Nc1ccc2c(c1)N(C(=O)c1ccco1)CCC2	743
CCc1cc(=O)n(Cc2ncc(C)c(OC)c2C)c(N2CCOCC2)n1	620
Cc1noc2ncn(CC(=O)NCc3ccccc3F)c(=O)c12	705
Cc1ccc(F)cc1NC(=O)c1sc(-c2cn(C)c3ncccc23)nc1C	983
CCCc1ccc(S(=O)(=O)NC2CCN(c3ccc(=O)n(CC4CC4)n3)CC2)cc1	972
C[C@H](NC(=O)Cc1cc(F)cc(F)c1)C(=O)N[C@H]1N=C(c2ccccc2)c2ccccc2N(C)C1=O	853
CCOc1ccccc1-c1noc(-c2cn(C)c3ccc(F)cc3c2=O)n1	833
CCCNC(=O)CCc1c(-c2ccc(Cl)cc2)nc2ccccn12	625
O=C(NCCCc1ccccc1)c1ccc2c(c1)CCN2C(=O)C1CC1	877
N#Cc1ccc(-c2nc(C3CC(=O)N(c4ccc(F)cc4)C3)no2)cc1 (centres undefined)	897
Cn1cnc(S(=O)(=O)N2CCC(C(=O)NC3CCCCCC3)CC2)c1	680
CNC(=O)c1cccc(Nc2c(-c3ccc(SC)cc3)nc3cnccn23)c1	692
Cc1nc2cc(C(=O)N3CCOCC3)ccc2n(C)c1=O	596
COC(=O)c1c(NCc2ccc(C)o2)c2cccc(Cl)c2[nH]c1=O	766

Structure (SMILES)	RP-LC retention time [s]
Cc1ccc(-c2ncccc2CNS(=O)(=O)c2ccc(F)c(C)c2)cc1	743
Cc1c(C)c2cc3c(=O)ccoc3c(C)c2oc1=O	780
COc1ccc(CNC(=O)C2CCN(S(C)(=O)=O)c3ccccc3O2)cc1 (centres undefined)	810
O=C(O)c1cnn2c(C(F)(F)F)cc(-c3ccc(F)cc3)nc12	823
CSc1ccccc1NC(=O)c1nnn(-c2cc(Cl)ccc2C)c1C	1180
COc1ccc(Nc2ncccc2S(N)(=O)=O)cc1	712
COc1ccc(CNC(=O)CN2CCc3[nH]c4cc5c(cc4c(=O)c3C2)OCCO5)cc1OC	585
CCCCN(C)C(=O)C1CCCN(c2cnc3nccnc3c2)C1 (centres undefined)	686
CC(=O)N1CCC(C(=O)N2CCCN(c3cc(-c4ccc(Cl)cc4)[nH]n3)CC2)CC1	648
Cc1ccc(NC(=O)Cn2cccc2-c2nnc(C3CCC3)o2)cc1	926
COc1ccccc1CCC(=O)N1C[C@@H]2C[C@H](NS(C)(=O)=O)[C@H]1C2	678
CCn1ncc(C(=O)N2CC(n3cc(COc4ccc(F)cc4)nn3)C2)c1C	714
COCc1nncn1C1CCN(S(=O)(=O)c2cc(F)ccc2OC)CC1	679
Cc1ccc(-n2c(N3CCCC(C(=O)NCCC4=CCCCC4)C3)nc3ccsc3c2=O)cc1 (centres undefined)	1060
COc1ccccc1NC(=O)N1CCCC(Cn2cnc3cccnc32)C1 (centres undefined)	667
CNC(=O)c1ccsc1NC(=O)c1cn(C)nc1OC	616
CS(=O)(=O)c1ccccc1-c1nnc(NC(=O)c2cccc(N3C(=O)CCC3=O)c2)o1	609
CC1CCCN(CCCNC(=O)C(=O)Nc2ccc3nc4n(c(=O)c3c2)CCCCC4)C1 (centres undefined)	599
Cc1ccc(C)c(-c2coc(-c3ccc(NC(=O)COc4ccc(F)cc4)cc3)n2)c1	1310
COc1cc(NC(=O)N2CCC(n3c(C)nc4cccnc43)CC2)cc(OC)c1	637
CC1(C)CC(=O)c2cn(-c3ccc(Cl)cc3)c(=O)c(C(=O)N3CCN(c4ccccn4)CC3)c2C1	650
CC1CCN(S(=O)(=O)c2ccc3c(ccc(=O)n3CC(=O)NC3CCCc4ccccc43)c2)CC1 (centres undefined)	919
Cc1noc(C)c1CC(=O)N1CCN(c2ncnc3c2CCC3)CC1	559

Structure (SMILES)	RP-LC retention time [s]
CN(C)CCNC(=O)c1ccc(-c2ccc(N3CCCCCC3)nc2)cc1	560
Cc1cc(S(=O)(=O)N2CCC3(CC2)CCC(O)(CN2CCCC2)CC3)ccc1Cl	706
Cc1noc(-c2ccnc(-n3ncc(C(=O)NC4CCCCCC4)c3C)c2)n1	968
CSc1ccc(CNC(=O)c2cn3cccc(C)c3n2)cc1	755
COc1ccc(NC(=O)N2CCC3(C2)C(=O)N(C)c2ccccc23)c(OC)c1 (centres undefined)	776
CCNC(=O)c1cnn(-c2cc(-c3nc(C4CC4)no3)ccn2)c1C	826
Cc1ccccc1NC(=O)Cn1c(=O)n(-c2ccccc2)c(=O)c2c1cc(C)n2C	806
Cc1cc(C(=O)NCC(c2cn(C)c3ccccc23)N(C)C)no1 (centres undefined)	557
CCN1c2ccc(C)cc2C(=O)NC12CCN(C(=O)Cc1ccc(C)cc1)CC2	887
CCN1CCN(C(=O)C2CCCN(c3nnc4ccc(C(F)(F)F)cn34)C2)CC1 (centres undefined)	567
CC1(C(=O)NCc2ccc(F)cc2)CCN(C(=O)Nc2ccccc2C(F)(F)F)CC1	877
COc1ccc(N2CCN(c3ccc4cc(S(=O)(=O)N5CCC(C)CC5)ccc4n3)CC2)cc1	1060
Cc1ccc(N2C=C(C(=O)N3CCCC3)S(=O)(=O)c3ccccc32)cc1	802
O=C(c1ccccn1)N1CCCCC1c1nncn1CC1CC1 (centres undefined)	608
Cc1cc(C)n(CC(=O)N2CCCCCCNC(=O)[C@@H]3CCCC[C@@H]32)n1	715
Cc1oc(-c2cccc(Cl)c2)nc1Cn1nnc(-c2nc(-c3cccnc3)no2)c1C	1080
COc1ccc(C(CNC(=O)c2cc(=O)c3cc(Cl)ccc3o2)N(C)C)cc1 (centres undefined)	650
COc1ccc(NC(=O)Nc2cccc(-c3nccnc3N3CCCC3)c2)c(OC)c1	881
Cc1ccc(-c2ccc(N3CCN(c4ccccn4)CC3)nn2)cc1S(=O)(=O)N1CCCC1	656
CCC(C)NC(=O)c1nccnc1NC(=O)c1ccccc1 (centres undefined)	899
CCOC(=O)c1ccccc1NC(=O)N1CCC2(CC1)NC(=O)c1ccccc1O2	922
CCc1cc(-c2csc(S(=O)(=O)Nc3ccc(C(C)C)cc3)c2)on1	1100
CSc1cccc(N2C=C(C#N)S(=O)(=O)c3ccc(Cl)cc32)c1	961

Structure (SMILES)	RP-LC retention time [s]
Cc1ccc(-n2c(=O)n(CC(=O)Nc3ccccc3C)c3cccnc32)cc1	865
Cc1ccc2[nH]cc(CCN3CC(C(=O)NCc4ccc5c(c4)OCO5)CC3=O)c2c1 (centres undefined)	770
c1ccc(-n2nnc(-c3noc(-c4ccco4)n3)c2-c2ccncc2)cc1	787
O=C([C@@H]1C[C@H](F)CN1C(=O)c1cccc(F)c1)N1CCOCC1	614
CCOc1ccccc1NS(=O)(=O)c1ccc(-c2c(C)noc2C)cc1	978
CCc1cccc(NC(=O)Cn2ncc3c(c2=O)N(CC2CC2)C(=O)CS3)c1	859
Cn1ncc2c(N3CCSCC3)nc(C(=O)N3CCOCC3)nc21	635
CCNc1nc(C)cc(N2CCN(S(=O)(=O)c3cc(C(C)C)ccc3C)CC2)n1	838
O=C(c1c[nH]c2ccccc12)N1CCN(c2cc(-c3cccs3)[nH]n2)CC1	731
CC(=O)c1cccc(NC(=O)Cn2cccc2-c2nnc(C3CCC3)o2)c1	831
O=C(c1ccc(F)cc1)N1CCC2(CC1)OCC(C(=O)N1CCOCC1)N2C(=O)c1cccc(F)c1 (centres undefined)	679
O=C(Cc1c[nH]c2ncccc12)NCc1cccc(Br)c1	647
Cc1noc(-c2cccc(OC3CN(C(=O)NCCc4ccccc4)C3)c2)n1	879
CCOc1ccc(NC(=O)Cn2nc3n(c2=O)CCCCC3)cc1	690
Cc1c(C(=O)N2CCN(c3ccccn3)CC2)oc2ccc3c(c12)C(=O)CC1(CCCCCC1)O3	879
Cc1ccc(NC(=O)N2CCCC2c2cc(C)on2)c(Cl)c1 (centres undefined)	897
CNC(=O)N1CC2(CCCCC2)CC1COCc1ccccc1 (centres undefined)	1060
Cc1cccc(CNC(=O)CCC2CCN(S(=O)(=O)c3ccccc3C)CC2)c1	982
Cc1cc2nn(CC(=O)NCc3ccccc3)c(=O)n2c(Nc2ccccc2C)n1	990
COc1cc(-c2nc(-c3ccc4c(c3)oc(=O)n4C(C)C)no2)cc(OC)c1OC	1110
